Results published in US4087390A, “Somatostatin analogs and intermediates thereto” (Eli Lilly and Company, priority 1977, dated 1978).
Bridge positions count the residues as written; N and C are the ends. Square brackets hold non-standard residues; d marks the D form. Peptide text beside a SMILES is read from it.

Tests used:
glucagon secretion = experiment: in vivo inhibition of glucagon secretion upon stimulation with insulin; design: species or system mongrel dogs; details: infused at a rate of 0.109 μg/kg/min.
Description: D-Val^2, D-Trp^8 -somatostatin also was evaluated for in vivo activity in inhibiting glucagon secretion upon stimulation with insulin. Normal mongrel dogs of either sex were fasted overnight. After control blood samples had been obtained, an intravenous infusion of saline, somatostatin, or D-Val^2, D-Trp^8 -somatostatin was commenced. After 15 minutes, insulin, 0.3 units/kg., was injected intravenously. The infusion of saline, somatostatin, or the test compound was continued for two hours, and blood samples were obtained at various intervals throughout the test. The total dose of the somatostatin or test compound ranged from 120-260 μg./dog (0.07-0.13 μg/kg/min.). Administration of insulin produced a reduction in the blood glucose concentration of an increase in serum glucagon concentration.

[1] = tested on: glucagon and insulin secretion; experiment: in vivo inhibition of glucagon and insulin secretion upon stimulation with L-alanine; design: species or system mongrel dogs; details: intravenous infusion
Description: D-Val^2, D-Trp^8 -somatostatin was tested for its in vivo activity in inhibiting glucagon and insulin secretion upon stimulation with L-alanine. Normal mongrel dogs of either sex were fasted overnight. Control blood samples were obtained, and then an intravenous infusion of saline, somatostatin, or D-Val^2, D-Trp^8 -somatostatin was started. After 30 minutes, L-alanine additionally was administered intravenously for a period of 15 minutes. The infusion of saline, somatostatin, or D-Val^2 D-Trp^8 -somatostatin was continued for 15 minutes after completion of the L-alanine infusion. The infusion of L-alanine caused an abrupt increase in serum concentration of glucagon and insulin which returned to control concentration upon termination of the L-alanine infusion. From the above it was determined that the minimal effective concentration of D-Val^2, D-Trp^8 -somatostatin is about 194 nanograms/kg./min. whereas the minimal effective concentration of somatostatin is 100-200 nanograms/kg./min.

gut motility = experiment: action on gut motility in conscious dogs (intralumenal pressure); format: in vivo
Description: D-Val^2, D-Trp^8 -somatostatin also was tested for its action on gut motility in conscious dogs. Three dogs having intralumenal catheters placed in the antrum, duodenum, and pylorus were used. Pressure changes in the gut lumen were recorded on a Visicorder using strain gauges and miniature light beam galvanometers. After a steady state control was established, D-Val^2, D-Trp^8 -somatostatin was infused intravenously over a ten minute period. […] The minimum effective dose required to increase the pyloric pressure and to decrease the duodenum and antrum pressures was >0.125 to <0.25 μg./kg.-10 minutes.

growth hormone secretion = experiment: release of growth hormone in sodium pentobarbital-stimulated rats; format: in vivo, Spraque-Dawley rats; details: subcutaneously, serum growth hormone 20 minutes after administration
Description: D-Val^2, D-Trp^8 -somatostatin also was tested for its activity with respect to the release of growth hormone. The procedure which was employed is carried out using normal male Spraque-Dawley rats weighing 100-120 grams (Laboratory Supply Company, Indianapolis, Indiana). The test is a modification of the method of P. Brazeau, W. Vale, and R. Guilleman, Endocrinology, 94, 184 (1974). In this assay, five groups of eight rats each were employed. Sodium pentobarbital was administered intraperitoneally to all of the rats to stimulate growth hormone secretion. One group served as the control and received only saline. Two of the groups received somatostatin, one at 2 μg./rat, subcutaneously, and the other at 50 μg./rat, subcutaneously. The other two groups received D-Val^2, D-Trp^8 -somatostatin, one at 2 μg./rat, subcutaneously, and the other at 50 μg./rat, subcutaneously. The serum concentration of growth hormone was measured 20 minutes after simultaneous administration of sodium pentobarbital and test compound. The degree of inhibition of serum growth hormone concentration then was determined with respect to the control group, and the relative activities of D-Val^2, D-Trp^8 -somatostatin and somatostatin itself were compared. […]

[2] = tested on: secretion from the pancreas induced by secretin and cholecystokinin; experiment: inhibition of pancreatic secretion in dogs with pancreatic and total gastric fistula; format: in vivo
Description: In three dogs having both pancreatic and total gastric fistula, secretion from the pancreas was induced by infusion of secretin at 2 units/kg-hr. and cholecystokinin at 0.45 unit/kg-hr., and secretion of gastric HCl by infusion of tetragastrin at 0.5 μg/kg-hr. After a steady response was established, each dog received D-Val^2, D-Trp^8 -somatostatin for one hour at 0.25 μg/kg-hr. The peak inhibitory effect expressed as percent change over control for total protein was -72%. This corresponds to the inhibitory effect obtained by administration of about 0.5 μg/kg-hr. of somatostatin.

[3] = tested on: gastric HCl secretion induced by the C-terminal tetrapeptide of gastrin; experiment: in vivo inhibition of gastric acid secretion in dogs with chronic fistula and Heidenhain pouch
Description: D-Val^2, D-Trp^8 -somatostatin was tested in dogs for its in vivo inhibition of gastric acid secretion. In six dogs with chronic fistula and Heidenhain pouch, gastric HCl secretion was induced by infusion of the C-terminal tetrapeptide of gastrin at 0.5 μg/kg-hr. Each dog served as its own control, receiving on a separate day only the tetrapeptide. On another day, the six dogs received the tetrapeptide, and after one hour of steady state secretion of HCl, D-Val^2, D-Trp^8 -somatostatin was infused at 0.25 μg/kg-hr. for one hour. Collection of gastric acid samples was continued for an additional 1.5 hours at 15 minute intervals. The samples were titrated to pH 7 with an automatic titrator. The maximal inhibitory effect of the D-Val^2, D-Trp^8 -somatostatin was extrapolated against the dose-response curve of somatostatin, and the relative potency of the analog to that of somatostatin is expressed as percent activity. D-Val^2, D-Trp^8 -somatostatin inhibited steady state acid secretion induced by the C-terminal tetrapeptide of gastrin by 61.9 ± 3.4% standard error of mean. This effect is equivalent to that of 0.324 μg/kg-hr. of somatostatin. Its activity relative to that of somatostatin thus is 130%.

[4] = intravenous infusion over ten minutes

CC(C)[C@@H](NC(=O)[C@H](C)N)C(=O)N[C@H]1CSSC[C@@H](C(=O)O)NC(=O)[C@H](CO)NC(=O)[C@H]([C@@H](C)O)NC(=O)[C@H](Cc2ccccc2)NC(=O)[C@H]([C@@H](C)O)NC(=O)[C@H](CCCCN)NC(=O)[C@@H](Cc2c[nH]c3ccccc23)NC(=O)[C@H](Cc2ccccc2)NC(=O)[C@H](Cc2ccccc2)NC(=O)[C@H](CC(N)=O)NC(=O)[C@H](CCCCN)NC1=O [D-Val^2, D-Trp^8 -somatostatin] (H-A[dV]CKNFF[dW]KTFTSC-OH; disulfide 3-14)
effect on the rise in serum glucagon concentration produced by insulin hypoglycemia (glucagon secretion): partial inhibition
minimal effective concentration (inhibition of glucagon and insulin secretion) [1]: about 194 nanograms/kg./min.
gut motility activity compared with somatostatin (gut motility; based on minimum effective dose): approximately equivalent to that of somatostatin itself
effect on intralumenal pressure in the pylorus (gut motility; [4]): initially increased the intralumenal pressure in the pylorus and then decreased it
effect on pressure in the duodenum and the antrum (gut motility; [4]): remained depressed throughout the test
inhibition of the increase in growth hormone secretion over control (growth hormone secretion; 2 μg./rat): 21%
inhibition of the increase in growth hormone secretion over control (growth hormone secretion; 50 μg./rat): 88%
dose of somatostatin giving the corresponding inhibitory effect on pancreatic secretion ([2]; compared with 0.25 μg/kg-hr. of the analog): about 0.5 μg/kg-hr.
peak inhibitory effect expressed as percent change over control for total protein ([2]; three dogs, 0.25 μg/kg-hr. for one hour): -72%
dose of somatostatin of equivalent effect on gastric acid secretion ([3]; effect of 0.25 μg/kg-hr. extrapolated against the dose-response curve of somatostatin): 0.324 μg/kg-hr.
activity relative to that of somatostatin (gastric acid secretion) ([3]; relative potency expressed as percent activity): 130%
inhibition of steady state acid secretion induced by the C-terminal tetrapeptide of gastrin ([3]; six dogs, infused at 0.25 μg/kg-hr. for one hour, maximal inhibitory effect, ± standard error of mean): 61.9 ± 3.4%
